Where two headings read alike, the source gives them in different places.
Assays:
[1] = biological target: T1, c-Abl (Homo sapiens, UniProt P00519); test: Abl filter-binding kinase assay (Abtide, [γ-32P]ATP); assay type: biochemical; details: isolated Abl; calculated from ID50, ATP-competitive; E0 0.005, S0 0.012 µM
T1 construct: His tag; purchased Upstate (Lake Placid, NY, USA)
Method: (§1) Baculovirus-produced recombinant purified his-tagged active against human Src and Abl were purchased from Upstate (Lake Placid, NY, USA).
(§2) Src activity was measured in a filter-binding assay using the Src Assay Kit (Upstate, Lake Placid, NY, USA), according to the manufacturer's protocol, using the specific Src peptide substrate [[…]] in the presence of 0.125 pmol of Src and 0.160 pmol of [γ-^32P]ATP. Abl activity was measured in a filter-binding assay using an Abl specific peptide substrate (Abtide, Upstate). Reaction conditions were (in a final volume of 10 µl): 25 mM Tris-HCl pH 7.5, 1 mM DTT, 0.012 µM [γ-^32P]ATP, 0.022 µM c-Abl. Reactions were incubated 10 min at 30°C.The samples (9 µl) were spotted on paper cellulose filters which were washed according to the manufacturer's protocol. Filter-bound radioactivity was measured by liquid scintillation with a Microbeta-Trilux apparatus (PerkinElmer, Waltham, MA, USA).
(§3) The ID50 were converted to Ki according to a competitive mechanism with respect to the substrate ATP. […] Since (i) the ATP concentration was limiting, i.e., [ATP], Km(ATP), and (ii) the enzyme concentration was not negligible with respect to the ATP concentration, the classical Cheng-Prusoff relationship was not applicable. Consequently, Ki values were calculated according to [drawing 3] (2) where S0 is the concentration of the competing substrate (ATP) and E0 is the concentration of the enzyme. Each experiment was done in triplicate and mean values were used for the interpolation. Curve fitting was performed with the program GraphPad Prism.

[2] = biological target: T2, c-Src (Homo sapiens, UniProt P12931); test: Src filter-binding kinase assay (Src Assay Kit); assay type: biochemical; details: isolated Src; calculated from ID50, ATP-competitive; E0 0.005, S0 0.012 µM
T2 construct: His tag; purchased Upstate (Lake Placid, NY, USA)
T2 sequence (P12931 whole entry): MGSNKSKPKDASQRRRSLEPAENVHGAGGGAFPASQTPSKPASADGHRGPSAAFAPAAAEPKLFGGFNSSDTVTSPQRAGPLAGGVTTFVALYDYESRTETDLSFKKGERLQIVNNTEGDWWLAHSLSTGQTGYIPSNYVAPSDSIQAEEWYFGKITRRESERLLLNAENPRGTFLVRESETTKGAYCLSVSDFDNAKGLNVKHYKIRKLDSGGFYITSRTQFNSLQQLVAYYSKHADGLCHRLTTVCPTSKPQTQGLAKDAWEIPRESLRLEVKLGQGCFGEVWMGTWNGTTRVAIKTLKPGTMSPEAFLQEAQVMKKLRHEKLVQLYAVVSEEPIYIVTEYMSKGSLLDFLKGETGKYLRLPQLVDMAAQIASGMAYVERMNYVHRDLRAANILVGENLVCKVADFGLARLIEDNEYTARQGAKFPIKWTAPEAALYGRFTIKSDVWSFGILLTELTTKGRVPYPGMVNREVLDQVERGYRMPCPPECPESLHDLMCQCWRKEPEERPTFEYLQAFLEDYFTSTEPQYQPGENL
Method: as §1, §2, §3

[3] = system: A2C12; test: MTS cell viability assay; assay type: cell-based, mouse
Method: (§4) Three human and eleven murine cancer cell lines were used. The human NSCLC cell line A549 (ACC 107) and the human colorectal carcinoma cell line CaCo2 (ACC 169) were obtained from Deutsche Sammlung von Mikroorganismen und Zellkulturen (DSMZ, Braunschweig, Germany). The human hepatocellular carcinoma cell line HepG2 (HB-8065) was obtained from American Type Culture Collection (Manassas, VA, USA). The 11 murine NSCLC cell lines were established as described recently. Cells were grown in monolayer cultures in DMEM containing 10% foetal calf serum, 4 mmol/l L-glutamine and 2% Penicillin/Streptomycin at 37°C in a humidified atmosphere of 95% air and 5% CO2.
(§5) Cell culture viability was monitored by CellTiter96® AQueous One Solution Cell Proliferation Assay (Promega GmbH, Mannheim, Germany). The cells were seeded in triplicates in 96-well microtitre plates and treated with the dual kinase inhibitors or vehicle (0.2% DMSO). After 24 h or 96 h of treatment the MTS tetrazolium reagent was added to the cells and incubated for 1 h. Absorbance at 490 nm was assayed with a Victor3 Wallac 1420 Multilabel counter (PerkinElmer, Waltham, MA, USA).

[4] = system: BetaD5; test: MTS cell viability assay; assay type: cell-based, mouse
Method: as §4, §5

[5] = system: GammaA3; test: MTS cell viability assay; assay type: cell-based, mouse
Method: as §4, §5

[6] = system: GammaD12; test: MTS cell viability assay; assay type: cell-based, mouse; details: MTS
Method: as §4, §5

[7] = system: A549; test: MTS cell viability assay; assay type: cell-based, human
Method: as §4, §5

[8] = system: CaCo2; test: MTS cell viability assay; assay type: cell-based, human
Method: as §4, §5

[9] = system: HepG2; test: MTS cell viability assay; assay type: cell-based, human
Method: as §4, §5

[10] = system: A2C12; test: Cell cycle analysis by flow cytometry; assay type: cell-based, mouse; details: IC50 concentration, 96 h
Method: (§6) CycleTEST™ PLUS DNA Reagent Kit (Becton Dickinson GmbH, Heidelberg, Germany) for cell cycle analysis was used, according to the instructions of the manufacturer. Briefly, the cells were harvested with trypsin, washed with PBS, and resuspended in CycleTEST Buffer. The cells were centrifuged and resuspended in solution A. After incubation for 10 min at room temperature, solution B was added and incubated. After adding solution C, the samples were incubated at 4°C protected from light. The samples were stored on ice and protected from light until analysis by FACScan flow cytometer (Becton Dickinson GmbH, Heidelberg, Germany).

[11] = system: BetaD5; test: Cell cycle analysis by flow cytometry; assay type: cell-based, mouse; details: IC50 concentration, 96 h
Method: as §6

[12] = system: GammaA3; test: Cell cycle analysis by flow cytometry; assay type: cell-based, mouse; details: IC50 concentration, 96 h
Method: as §6

[13] = system: GammaD12; test: Cell cycle analysis by flow cytometry; assay type: cell-based, mouse; details: IC50 concentration, 96 h
Method: as §6

[14] = system: A549; test: Cell cycle analysis by flow cytometry; assay type: cell-based, human; details: IC50 concentration, 96 h
Method: as §6

[15] = system: CaCo2; test: Cell cycle analysis by flow cytometry; assay type: cell-based, human; details: IC50 concentration, 96 h
Method: as §6

[16] = system: HepG2; test: Cell cycle analysis by flow cytometry; assay type: cell-based, human; details: IC50 concentration, 96 h
Method: as §6

[17] = Mus musculus, 24 h, read-out: Calculated IC50 after single treatment for 24 h
[18] = Mus musculus, 96 h, read-out: Calculated IC50 after daily treatment for 96 h
[19] = 24 h, read-out: Calculated IC50 after single treatment for 24 h
[20] = 96 h, read-out: Calculated IC50 after daily treatment for 96 h

T1 sequence (P00519 whole entry): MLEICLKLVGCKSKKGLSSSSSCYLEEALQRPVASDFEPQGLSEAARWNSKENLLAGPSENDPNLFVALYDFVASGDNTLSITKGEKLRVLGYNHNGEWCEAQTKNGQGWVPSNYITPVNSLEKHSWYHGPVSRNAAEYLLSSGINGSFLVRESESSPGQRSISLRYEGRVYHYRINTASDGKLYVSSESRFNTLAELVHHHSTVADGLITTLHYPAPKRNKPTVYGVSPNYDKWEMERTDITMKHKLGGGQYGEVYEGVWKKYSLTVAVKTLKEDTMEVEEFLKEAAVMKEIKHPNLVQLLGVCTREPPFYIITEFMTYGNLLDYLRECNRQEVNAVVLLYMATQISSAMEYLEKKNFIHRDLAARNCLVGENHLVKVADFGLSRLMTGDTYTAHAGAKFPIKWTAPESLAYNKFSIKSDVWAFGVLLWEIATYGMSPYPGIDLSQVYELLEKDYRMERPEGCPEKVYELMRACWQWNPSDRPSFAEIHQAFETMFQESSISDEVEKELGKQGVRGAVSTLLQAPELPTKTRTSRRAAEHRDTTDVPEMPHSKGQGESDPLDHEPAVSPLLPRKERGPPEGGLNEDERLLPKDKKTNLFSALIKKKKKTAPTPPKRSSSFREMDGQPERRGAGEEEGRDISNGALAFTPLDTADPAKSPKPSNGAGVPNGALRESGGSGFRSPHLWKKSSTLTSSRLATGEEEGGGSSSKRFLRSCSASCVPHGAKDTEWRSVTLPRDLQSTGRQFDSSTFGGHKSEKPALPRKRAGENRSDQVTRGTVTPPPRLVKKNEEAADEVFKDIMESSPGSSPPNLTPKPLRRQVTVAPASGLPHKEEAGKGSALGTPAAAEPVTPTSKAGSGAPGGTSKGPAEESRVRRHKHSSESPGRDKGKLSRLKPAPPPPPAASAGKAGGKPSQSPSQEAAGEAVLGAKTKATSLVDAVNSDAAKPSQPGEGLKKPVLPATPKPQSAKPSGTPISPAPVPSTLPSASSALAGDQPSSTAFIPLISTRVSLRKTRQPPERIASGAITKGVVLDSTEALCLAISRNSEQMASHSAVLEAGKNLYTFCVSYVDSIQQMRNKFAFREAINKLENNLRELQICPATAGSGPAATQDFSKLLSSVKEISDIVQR

Compound	Cells in G1 phase [10] [%]	Cells in G2 phase [10] [%]	Cells in S phase [10] [%]	Cells in G1 phase [11] [%]	Cells in G2 phase [11] [%]	Cells in S phase [11] [%]	Cells in G1 phase [12] [%]	Cells in G2 phase [12] [%]	Cells in S phase [12] [%]	Cells in G1 phase [13] [%]	Cells in G2 phase [13] [%]	Cells in S phase [13] [%]	Cells in G1 phase [14] [%]	Cells in G2 phase [14] [%]	Cells in S phase [14] [%]	Cells in G1 phase [15] [%]	Cells in G2 phase [15] [%]	Cells in S phase [15] [%]	Cells in G1 phase [16] [%]	Cells in G2 phase [16] [%]	also measured
Cc1nc(Nc2cccc(Cl)c2)c2cnn(CC(Cl)c3ccccc3)c2n1 (centres unmarked) [Si167]	55.7	13.1	31.2	74.7	18.7	6.6	73.2	15.1	11.7	42	9.4	48.6	61.5	6.7	31.8	52.7	18	29.3	57.8	10.6	Ki [1]: 0.5 µM; Ki [2]: 0.362 µM; IC50 [3, 17]: 16.4 ± 0.8 µM; IC50 [3, 18]: 10.6 ± 0.9 µM; IC50 [4, 17]: 12.4 ± 1 µM; IC50 [4, 18]: 9.3 ± 0.6 µM; IC50 [5, 17]: 20.5 ± 1.2 µM; IC50 [5, 18]: 16.8 ± 3.2 µM; IC50 [6, 17]: 19.5 ± 0.8 µM; IC50 [6, 18]: 9 ± 0.9 µM; IC50 ([7]; Homo sapiens, A549, 24 h, 24 h, read-out: Calculated IC50 after single treatment for 24 h): 19.8 ± 2.8 µM; IC50 ([7]; Homo sapiens, A549, 96 h, 96 h, read-out: Calculated IC50 after daily treatment for 96 h): 5.7 ± 0.3 µM; IC50 ([8]; Homo sapiens, Caco-2, 24 h, read-out: Calculated IC50 after single treatment for 24 h): 32.2 ± 1.7 µM; IC50 ([8]; Homo sapiens, Caco-2, 96 h, read-out: Calculated IC50 after daily treatment for 96 h): 5.7 ± 0.6 µM; IC50 ([9]; Homo sapiens, 24 h, read-out: Calculated IC50 after single treatment for 24 h): 32.2 ± 1.7 µM; IC50 ([9]; Homo sapiens, 96 h, read-out: Calculated IC50 after daily treatment for 96 h): 11.4 ± 1.7 µM; Cells in S phase [16]: 31.6%
Fc1ccc(C(Cl)Cn2ncc3c(Nc4cccc(Cl)c4)ncnc32)cc1 (centres unmarked) [Si104]	45.8	13.8	40.4	57.4	25.3	17.3	61.9	16.9	21.2	35.3	7.8	56.9	68.1	5.5	26.4	51	10.9	38.1	56.2	8.1	IC50 [3, 19]: 16.2 ± 1 µM; IC50 [3, 20]: 6.5 ± 0.3 µM; IC50 [4, 19]: 12.6 ± 2.6 µM; IC50 [4, 20]: 12.4 ± 1 µM; IC50 [5, 19]: 18.3 ± 0.7 µM; IC50 [5, 20]: 11.4 ± 0.3 µM; IC50 [6, 19]: 13.2 ± 0.9 µM; IC50 [6, 20]: 9.2 ± 0.5 µM; IC50 [7, 19]: 17.8 ± 2.6 µM; IC50 [7, 20]: 6.8 ± 0.1 µM; IC50 [8, 19]: 40.8 ± 1.7 µM; IC50 [8, 20]: 5.8 ± 0.2 µM; IC50 [9, 19]: 40.9 ± 1.7 µM; IC50 [9, 20]: 10.3 ± 0.7 µM; Cells in S phase [16]: 35.6%
CSc1nc(Nc2cccc(F)c2)c2cnn(CC(Cl)c3ccc(F)cc3)c2n1 (centres unmarked) [Si93]	56.8	14.6	28.6	42.4	25.2	22.1	76.1	16.6	7.2	39.5	14.7	45.8	72.6	5	22.4	59.3	9.5	31.1	55	9.6	IC50 [3, 19]: 16.9 ± 0.9 µM; IC50 [3, 20]: 6.5 ± 0.3 µM; IC50 [4, 19]: 13.8 ± 2 µM; IC50 [4, 20]: 10.4 ± 0.5 µM; IC50 [5, 19]: 15.6 ± 0.6 µM; IC50 [5, 20]: 7.7 ± 0.4 µM; IC50 [6, 19]: 11.8 ± 0.4 µM; IC50 [6, 20]: 8.8 ± 0.3 µM; IC50 [7, 19]: 21.5 ± 4.2 µM; IC50 [7, 20]: 6.5 ± 0.2 µM; IC50 [8, 19]: 65.6 ± 2.7 µM; IC50 [8, 20]: 6.4 ± 0.1 µM; IC50 [9, 19]: 65.6 ± 2.7 µM; IC50 [9, 20]: 19.1 ± 1.6 µM; Cells in S phase [16]: 35.4%

From PMC2994747, “Molecular Characterization of c-Abl/c-Src Kinase Inhibitors Targeted against Murine Tumour Progenitor Cells that Express Stem Cell Markers” (PLoS ONE, 2010)
